ChEMBL document CHEMBL1201862, “PubChem BioAssay data set” (2004)
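Test compounds were applied to cells in 96-well plates for 48 hours at 5 doses. Abbreviation: GI50, concentration required for 50% inhibition of growth.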 Activity calls are given as the source filed them. No stated cut-off is given here; in the data, active = GI50 up to about 1.1 µM and inactive = higher.

What was measured:
Test in all cases: NCI anticancer screen, dose series, 48 h
A549 = tested on: A549
ACHN = tested on: ACHN
CAKI-1 = tested on: CAKI-1
COLO 205 = tested on: COLO 205
HCT-15 = tested on: HCT-15
IGROV-1 = tested on: IGROV-1
K562 = tested on: K562
LOX IMVI = tested on: LOX IMVI
NCI-H522 = tested on: NCI-H522
OVCAR-3 = tested on: OVCAR-3
OVCAR-4 = tested on: OVCAR-4
SF-295 = tested on: SF-295
SK-MEL-28 = tested on: SK-MEL-28
SK-MEL-5 = tested on: SK-MEL-5
SN12C = tested on: SN12C
SNB-75 = tested on: SNB-75
UACC-62 = tested on: UACC-62

## O=C1C2C(C(=O)N1c1ccccc1)C1(c3ccccc3)OC2(c2ccccc2)c2ccccc21 (centres undefined)
A549
  GI50: > 100 µM (inactive)
ACHN
  GI50: > 100 µM (inactive)
CAKI-1
  GI50: > 100 µM (inactive)
COLO 205
  GI50: > 100 µM (inactive)
HCT-15
  GI50: > 100 µM
IGROV-1
  GI50: > 100 µM (inactive)
K562
  GI50: > 100 µM (inactive)
LOX IMVI
  GI50: > 100 µM (inactive)
NCI-H522
  GI50: 30.6 µM (inactive)
OVCAR-3
  GI50: > 100 µM (inactive)
OVCAR-4
  GI50: > 100 µM (inactive)
SF-295
  GI50: > 100 µM (inactive)
SK-MEL-28
  GI50: > 100 µM (inactive)
SK-MEL-5
  GI50: 2.78 µM (inactive)
SN12C
  GI50: > 100 µM (inactive)
SNB-75
  GI50: 12.8 µM (inactive)
UACC-62
  GI50: > 100 µM (inactive)

## CCC(=O)c1c(NOC2OCC(OC(C)=O)C(OC(C)=O)C2OC(C)=O)nc(OC)n(C)c1=O (centres undefined)
A549
  GI50: > 100 µM (inactive)
ACHN
  GI50: > 100 µM (inactive)
CAKI-1
  GI50: > 100 µM (inactive)
COLO 205
  GI50: > 100 µM (inactive)
HCT-15
  GI50: > 100 µM
IGROV-1
  GI50: > 100 µM (inactive)
K562
  GI50: > 100 µM (inactive)
LOX IMVI
  GI50: > 100 µM (inactive)
OVCAR-3
  GI50: > 100 µM (inactive)
OVCAR-4
  GI50: > 100 µM (inactive)
SF-295
  GI50: > 100 µM (inactive)
SK-MEL-28
  GI50: > 100 µM (inactive)
SK-MEL-5
  GI50: > 100 µM (inactive)
SN12C
  GI50: > 100 µM (inactive)
SNB-75
  GI50: > 100 µM (inactive)
UACC-62
  GI50: > 100 µM (inactive)

## COC(=O)C1CC(=O)O[C@H]1c1ccc(OC)c(OC)c1 (some centres undefined)
A549
  GI50: > 100 µM (inactive)
ACHN
  GI50: > 100 µM (inactive)
CAKI-1
  GI50: > 100 µM (inactive)
COLO 205
  GI50: > 100 µM (inactive)
HCT-15
  GI50: > 100 µM
IGROV-1
  GI50: > 100 µM (inactive)
K562
  GI50: > 100 µM (inactive)
LOX IMVI
  GI50: > 100 µM (inactive)
OVCAR-3
  GI50: > 100 µM (inactive)
OVCAR-4
  GI50: > 100 µM (inactive)
SF-295
  GI50: > 100 µM (inactive)
SK-MEL-28
  GI50: > 100 µM (inactive)
SK-MEL-5
  GI50: > 100 µM (inactive)
SN12C
  GI50: > 100 µM (inactive)
SNB-75
  GI50: > 100 µM (inactive)
UACC-62
  GI50: > 100 µM (inactive)

## O=C(COc1ccccc1)NS(=O)(=O)c1ccccc1
A549
  GI50: > 100 µM (inactive)
ACHN
  GI50: > 100 µM (inactive)
CAKI-1
  GI50: > 100 µM (inactive)
COLO 205
  GI50: > 100 µM (inactive)
HCT-15
  GI50: > 100 µM
IGROV-1
  GI50: > 100 µM (inactive)
K562
  GI50: > 100 µM (inactive)
LOX IMVI
  GI50: > 100 µM (inactive)
NCI-H522
  GI50: > 100 µM (inactive)
OVCAR-3
  GI50: > 100 µM (inactive)
OVCAR-4
  GI50: > 100 µM (inactive)
SF-295
  GI50: > 100 µM (inactive)
SK-MEL-28
  GI50: > 100 µM (inactive)
SN12C
  GI50: > 100 µM (inactive)
SNB-75
  GI50: > 100 µM (inactive)
UACC-62
  GI50: > 100 µM (inactive)

## CCOC(=O)C12CCCC1(O)N(NC(=O)c1cccc(Cl)c1)C(C)=C2C(=O)OC (centres undefined)
A549
  GI50: > 100 µM (inactive)
ACHN
  GI50: > 100 µM (inactive)
CAKI-1
  GI50: > 100 µM (inactive)
HCT-15
  GI50: > 100 µM
IGROV-1
  GI50: > 100 µM (inactive)
K562
  GI50: 96.6 µM (inactive)
LOX IMVI
  GI50: > 100 µM (inactive)
NCI-H522
  GI50: 40.5 µM (inactive)
OVCAR-3
  GI50: > 100 µM (inactive)
OVCAR-4
  GI50: > 100 µM (inactive)
SF-295
  GI50: 72.4 µM (inactive)
SK-MEL-28
  GI50: > 100 µM (inactive)
SK-MEL-5
  GI50: > 100 µM (inactive)
SN12C
  GI50: > 100 µM (inactive)
SNB-75
  GI50: 34.5 µM (inactive)
UACC-62
  GI50: > 100 µM (inactive)

## Cc1ccc(S(=O)(=O)N/N=C/c2oc(-c3ccccc3Cl)c(-c3ccccc3Cl)c2[N+](=O)[O-])cc1
A549
  GI50: 24.2 µM (inactive)
ACHN
  GI50: 13.9 µM (inactive)
CAKI-1
  GI50: 36.9 µM (inactive)
COLO 205
  GI50: 28.1 µM (inactive)
IGROV-1
  GI50: 24.9 µM (inactive)
K562
  GI50: 12.9 µM (inactive)
NCI-H522
  GI50: 6.07 µM (inactive)
OVCAR-3
  GI50: > 100 µM (inactive)
OVCAR-4
  GI50: 30 µM (inactive)
SF-295
  GI50: > 100 µM (inactive)
SK-MEL-28
  GI50: 22.9 µM (inactive)
SK-MEL-5
  GI50: 19.5 µM (inactive)
SN12C
  GI50: 14.8 µM (inactive)
UACC-62
  GI50: 17.8 µM (inactive)

## CC#CC(=O)Nc1ccccc1CC(c1c[nH]c2ccccc12)c1c[nH]c2ccccc12
A549
  GI50: 20.5 µM (inactive)
CAKI-1
  GI50: 20.6 µM (inactive)
COLO 205
  GI50: 15.5 µM (inactive)
HCT-15
  GI50: 14.3 µM
IGROV-1
  GI50: 16.4 µM (inactive)
K562
  GI50: 16.1 µM (inactive)
LOX IMVI
  GI50: 15.2 µM (inactive)
NCI-H522
  GI50: > 10 µM (inactive)
OVCAR-3
  GI50: 18.9 µM (inactive)
SF-295
  GI50: 20.3 µM (inactive)
SK-MEL-28
  GI50: 15.7 µM (inactive)
SK-MEL-5
  GI50: 14.2 µM (inactive)
SN12C
  GI50: 15.1 µM (inactive)
SNB-75
  GI50: 5.51 µM (inactive)
UACC-62
  GI50: 13.3 µM (inactive)

## Clc1ccc(CCn2cncn2)c(Cl)c1
A549
  GI50: > 100 µM (inactive)
ACHN
  GI50: > 100 µM (inactive)
CAKI-1
  GI50: > 100 µM (inactive)
COLO 205
  GI50: > 100 µM (inactive)
HCT-15
  GI50: > 100 µM
IGROV-1
  GI50: > 100 µM (inactive)
K562
  GI50: > 100 µM (inactive)
NCI-H522
  GI50: > 100 µM (inactive)
OVCAR-3
  GI50: > 100 µM (inactive)
OVCAR-4
  GI50: > 100 µM (inactive)
SF-295
  GI50: > 100 µM (inactive)
SK-MEL-28
  GI50: > 100 µM (inactive)
SK-MEL-5
  GI50: > 100 µM (inactive)
SN12C
  GI50: > 100 µM (inactive)
SNB-75
  GI50: > 100 µM (inactive)
UACC-62
  GI50: > 100 µM (inactive)

## O=S(=O)(/C=C/c1ccc(Cl)cc1Cl)Cc1ccccc1CS(=O)(=O)/C=C/c1ccc(Cl)cc1Cl
A549
  GI50: 18 µM (inactive)
ACHN
  GI50: 63.8 µM (inactive)
CAKI-1
  GI50: > 100 µM (inactive)
COLO 205
  GI50: > 100 µM (inactive)
HCT-15
  GI50: 46.2 µM
IGROV-1
  GI50: > 100 µM (inactive)
K562
  GI50: 61.1 µM (inactive)
LOX IMVI
  GI50: > 100 µM (inactive)
NCI-H522
  GI50: > 100 µM (inactive)
OVCAR-3
  GI50: > 100 µM (inactive)
OVCAR-4
  GI50: 11.9 µM (inactive)
SF-295
  GI50: 89.3 µM (inactive)
SK-MEL-28
  GI50: > 100 µM (inactive)
SN12C
  GI50: > 100 µM (inactive)
SNB-75
  GI50: 6.18 µM (inactive)
UACC-62
  GI50: 8.38 µM (inactive)

## N#CC(C(=O)CCC(=O)Nc1ccc(Cl)cc1)c1ccc(Cl)cc1 (centres undefined)
A549
  GI50: > 100 µM (inactive)
ACHN
  GI50: 77.1 µM (inactive)
CAKI-1
  GI50: 92.5 µM (inactive)
COLO 205
  GI50: > 100 µM (inactive)
HCT-15
  GI50: > 100 µM
IGROV-1
  GI50: 89.5 µM (inactive)
K562
  GI50: 18.9 µM (inactive)
LOX IMVI
  GI50: 78.5 µM (inactive)
NCI-H522
  GI50: > 100 µM (inactive)
OVCAR-3
  GI50: > 100 µM (inactive)
OVCAR-4
  GI50: > 100 µM (inactive)
SF-295
  GI50: > 100 µM (inactive)
SK-MEL-5
  GI50: > 100 µM (inactive)
SN12C
  GI50: > 100 µM (inactive)
UACC-62
  GI50: 10.7 µM (inactive)

## COC(=O)CC(C(C(C)=O)C(=O)OCc1ccccc1)N1C(=O)OCC1c1ccccc1 (centres undefined)
A549
  GI50: 62.8 µM (inactive)
ACHN
  GI50: > 100 µM (inactive)
COLO 205
  GI50: > 100 µM (inactive)
HCT-15
  GI50: > 100 µM
IGROV-1
  GI50: 50 µM (inactive)
K562
  GI50: > 100 µM (inactive)
LOX IMVI
  GI50: > 100 µM (inactive)
OVCAR-3
  GI50: 87.9 µM (inactive)
OVCAR-4
  GI50: 71.3 µM (inactive)
SF-295
  GI50: > 100 µM (inactive)
SK-MEL-28
  GI50: > 100 µM (inactive)
SK-MEL-5
  GI50: 47.8 µM (inactive)
SN12C
  GI50: > 100 µM (inactive)
SNB-75
  GI50: 15.5 µM (inactive)
UACC-62
  GI50: 44.2 µM (inactive)

## CCCCCCC1=NOC(C(c2cc[nH]c2)N(C)[C@H](C(=O)OC)C(C)C)C1 (some centres undefined)
A549
  GI50: 62.5 µM (inactive)
ACHN
  GI50: 34.4 µM (inactive)
CAKI-1
  GI50: > 100 µM (inactive)
COLO 205
  GI50: 15.3 µM (inactive)
IGROV-1
  GI50: 65.8 µM (inactive)
K562
  GI50: 39.2 µM (inactive)
LOX IMVI
  GI50: 26.1 µM (inactive)
NCI-H522
  GI50: 16.1 µM (inactive)
OVCAR-3
  GI50: 25.4 µM (inactive)
OVCAR-4
  GI50: 39 µM (inactive)
SF-295
  GI50: 47.1 µM (inactive)
SK-MEL-28
  GI50: 75 µM (inactive)
SK-MEL-5
  GI50: 41.8 µM (inactive)
SN12C
  GI50: 20.6 µM (inactive)
SNB-75
  GI50: 55.6 µM (inactive)
UACC-62
  GI50: 37.1 µM (inactive)

## COC(=O)C1CCC2(C)[C@H](CCC3O[C@]32C)[C@@]1(C)CC(=O)c1ccoc1 (some centres undefined)
A549
  GI50: > 100 µM (inactive)
ACHN
  GI50: 34.4 µM (inactive)
CAKI-1
  GI50: > 100 µM (inactive)
COLO 205
  GI50: > 100 µM (inactive)
HCT-15
  GI50: 81.1 µM
IGROV-1
  GI50: 58.6 µM (inactive)
K562
  GI50: 46.1 µM (inactive)
LOX IMVI
  GI50: > 100 µM (inactive)
NCI-H522
  GI50: 21.2 µM (inactive)
OVCAR-3
  GI50: > 100 µM (inactive)
OVCAR-4
  GI50: > 100 µM (inactive)
SF-295
  GI50: > 100 µM (inactive)
SK-MEL-28
  GI50: > 100 µM (inactive)
SK-MEL-5
  GI50: 66.1 µM (inactive)
SN12C
  GI50: > 100 µM (inactive)
UACC-62
  GI50: 88.5 µM (inactive)
